In patent US20260138969A1 (Korea Research Institute of Chemical Technology, priority 2023, published 2026):
Marks after values point to notes of the source that are not given here.

Columns and labels:
BV2 cells = test: Anti-inflammatory efficacy: LPS-induced TNF-α secretion (ELISA); format: cell-based; conditions: 0.1, 0.3, 1 μM pretreatment 1 hour, LPS 100 μg/ml 24 hours; FIG. 2
Description: BV2 cells (2×10^4 cells per well) were incubated for 24 hours in a 96-well culture plate. Subsequently, the Example compounds were added in 0.1 μM, 0.3 μM, and 1 μM, respectively, for 1 hour, followed by the addition of LPS 100 μg/ml and incubated for 24 hours. After incubation, conditioned medium (CM) was harvested and centrifuged at 2000 rpm. After separating the supernatant of the solution after centrifugation, the TNF-α secreted from the cell culture medium was measured using the corresponding ELISA kit (LABISKOMA, Seoul, Korea).

[1] = TG synthesis inhibition in FFA-treated HepG2 cells; format: cell-based, human; conditions: human, HepG2 cells, read-out: Cell Viability (% of HepG2 control)
HepG2 cells = test: TG synthesis inhibition in FFA-treated HepG2 cells; format: cell-based, human
[2] = Distribution in the mouse brain (plasma and brain AUC); format: in vivo
Description: The blood-brain barrier permeability in ICR mice was confirmed by oral administration of 10 mg/kg of test material. Male […] mice were fasted for 15 h prior to administration. The test material was administered at a dose of 10 mg/kg and a volume of 5 mL/kg, and the solvent composition was N-Methyl-2-pyrrolidone (NMP), Polyethylene glycol 400 (PEG 400), and distilled water (D.W) at a volume ratio of 10:40:50(%), respectively. After administration, blood and brain tissue samples were taken by sacrificing mice with carbon dioxide inhalation at each time point corresponding to 1, 4, and 8 hours. Whole blood was collected from the abdominal vena cava, and brain samples were collected after systemic perfusion with saline to remove as much blood as possible.
The distribution ratio in mouse plasma and brain was calculated by calculating the AUC after concentration quantification in each tissue.

[3] = system: SOD1 G93A transgenic ALS mouse model; test: SOD1 G93A transgenic ALS mouse model: neurological score; format: in vivo; conditions: 30 mg/kg PO QD; from the 19th week of age onwards; vs G2
Description: (§1) The test drug was administered once daily (QD) via oral administration (PO) in a solution of 5 mL/kg from 8 weeks of age until death. Body weight was measured weekly, and disease score was measured daily from 8 weeks until the death of the animal. Motor behavior tests (grip strength) and neurological score tests (modified Irwin test) were performed at 9, 11, 13, 15, 17, 19, and 21 weeks, respectively. The survival of the mice was monitored daily.

[4] = system: SOD1 G93A transgenic ALS mouse model; test: SOD1 G93A transgenic ALS mouse model: disease symptom score (ALSTDI); format: in vivo; conditions: 30 mg/kg PO QD from 8 weeks of age; vs G2
Description: as §1
From 8 weeks of age, the neurological scoring system developed by the ALS Therapy Development Institute (ALSTDI) method was used to evaluate disease symptoms in mice. Both hind legs were scored based on Table 14 below.

[5] = system: SOD1 G93A transgenic ALS mouse model; test: SOD1 G93A transgenic ALS mouse model: grip strength; format: in vivo; conditions: 30 mg/kg PO QD from 8 weeks of age; vs G2
Description: as §1
Grip strength measurements were performed on mice aged 9, 11, 13, 15, 17, 19, and 21 weeks of age. The mouse was placed on a grip strength measurement device (San Diego Instruments, San Diego, USA) in such a way that the mouse grabbed the handle of a small mesh with its front paws. I put the mouse down on the platform and then slowly pulled the handle […] until the mouse released the handle. The device automatically measured the grip strength of the mouse in grams. Five scores per mouse were recorded consecutively in a one-day session.

[6] = system: SOD1 G93A transgenic ALS mouse model; test: SOD1 G93A transgenic ALS mouse model: survival; format: in vivo; conditions: 30 mg/kg PO QD from 8 weeks of age until death; vs G2
Description: as §1
The survival of the mice was monitored daily. The survival age of mice was recorded and labeled as Kaplan Meier survival plots.

[7] = system: Reserpine-induced fibromyalgia rat model; test: Reserpine-induced fibromyalgia rat model: pain (von Frey test); format: in vivo
Description: Reserpine-induced fibromyalgia model generation and drug administration were carried out on 6-week-old male SD rats divided into 6 groups as shown in Table 15 below: control group (G1), reserpine+delivery (G2), reserpine+gabapentin 50 mg/kg (G3), reserpine+Example 2 3 mg/kg (G4), 10 mg/kg (G5), and 30 mg/kg (G6). To create a rat fibromyalgia model, reserpine (Sigma-aldrich, 1 mg/kg) dissolved in 0.5% acetic acid was administered subcutaneously once for 3 days from 3 days before the start of the experiment. Beginning on Day 1, the once-daily (QD) delivery body, gabapentin, and embodiment 2 were administered intraperitoneally (IP) or orally (PO) 2 hours before the experiment was performed.
The right hind foot tactile response test (von Frey test) was performed 5 times (before the fibromyalgia model, and on the 1st, 2nd, 4th and 6th days after the model was generated). Before all behavioral tests, rats were accustomed to the environment for 30 minutes, and all experimenters performing behavioral tests were made blind to drug administration information. Before model generation, baseline measurements were performed by performing the von Frey test on all rats. The rat was placed on a wired mesh and placed in a transparent plastic box (20×20×14 cm), and the foot withdrawal threshold was measured by applying a von Frey filament (ascending weight: 0.4, 0.6, 1.4, 2, 4, 6, 8, and 15 g, North Coast) to the middle of the right hind foot to assess foot allodynia.

[8] = oral 10 mg/kg, samples at 1, 4, 8 hours

SMILES	TNF-α secretion induced by LPS (BV2 cells)	viability at 48 h, 0.3 μM ([1]; FFA 1 mM + 0.3 μM)	viability at 48 h, 1 μM ([1]; FFA 1 mM + 1 μM)	TG Level (% of HepG2 control) (HepG2 cells; FFA 1 mM + 0.3 μM)	TG Level (% of HepG2 control) (HepG2 cells; FFA 1 mM + 1 μM)	Kp ([2]; male, brain/plasma, po, 10 mg/kg)	Aukinf brain [2, 8]	Aukinf plasma [2, 8]	neurological scores [3]	disease symptom score [4]	grip strength [5]	survival rate [6]	pain improvement efficacy (von Frey test) ([7]; 30 mg/kg PO QD)	sensitivity (foot withdrawal threshold, von Frey test) ([7]; gabapentin 50 mg/kg IP QD, Example 2 3, 10, 30 mg/kg PO QD, days 1, 2, 4, 6)
Cc1cc(F)c(C(=O)Nc2cccc(-n3nnc4c3CCCC4)n2)cc1-n1cnc(C2CC2)c1 [Example 3, 5-(4-cyclopropyl-1H-imidazole-1-yl)-2-fluoro-4-methyl-N-(6-(4,5,6,7-tetrahydro-1H-benzo[d][1,2,3]triazole-1-yl)pyridine-2-yl)benzamide]	reduced TNF-α secretion at all concentrations compared to Selonsertib	99.1%	93.1%	117.38 * % of HepG2 control	106.59 * % of HepG2 control	0.021	6.61 ± 1.75 ug*h · g.	320 ± 74.8 µg·mL·h	significant decrease in neurological scores compared to G2	tended to have a lower disease symptom score compared to G2 during the observation period, and decreased significantly at 20 weeks	tended to increase grip strength compared to group G2, and the grip strength increased significantly from 19 weeks	tendency to improve survival rate, although it was not significant compared to group G2		
Cc1cc(F)c(C(=O)Nc2cccc(-n3nnc4c3CCC4)n2)cc1-n1cnc(C2CC2)c1 [Example 2, 5-(4-cyclopropyl-1H-imidazole-1-yl)-N-(6-(5,6-dihydrocyclopenta[d][1,2,3]triazole-1 (4H)-yl)pyridine-2-yl)-2-fluoro-4-methylbenzamide]													significant efficacy	gradually improved over time
